{"source": "patent US11324720B2", "about": "“Antiproliferative DNA polymerase inhibitor” (NEW YORK MEDICAL COLLEGE, priority 2018, dated 2022)", "key": {"HCC1395 cells": {"test_system": "HCC1395 cells", "test": "MTT assay with PARP inhibitors with or without zelpolib", "assay_type": "cell-based, human", "settings": "for sensitivity of HCC1395 cells to the PARP inhibitor alone: HR-proficient triple-negative breast cancer cell line", "experimental": "However, there have been minimal clinical benefits for HR-proficient cancers^37-41. Since zelpolib can inhibit HR, we explored the effect of zelpolib in combination with PARP inhibitors on HR-proficient cancer cells. The hypothesis is that zelpolib will lead to an HR-defect through inhibition of Pol δ and render HR-proficient cells sensitive to PARP inhibition. […] The cells were treated with increasing concentrations of PARP inhibitor Niraparib (FIG. 5B) or Rucaparib (FIG. 5C) in the absence or presence of 2.5 μM zelpolib for 48 hrs. The number of cells were then analyzed by MTT assay.\n(§1) Human cancer cells (5×10^3-7.5×10^3) were initially seeded in 96-well plates (Cellstar) containing 0.2 ml media per well. After 24 hrs, these cells were treated with variable concentrations drug combinations for 48-72 hrs. Subsequently, 4,5-dimethylthiazol-2-yl-2,5-diphenyltetrazolium bromide (MTT) (20 μl of 5 mg/ml) was added to each well for 3 hrs. Formazan crystals were then dissolved in 150 μl DMSO and optical density was read at 490 nm^25. All experiments were performed in triplicates. Results were analyzed by GraphPad Prism. Data represent mean value±SEM for each concentration of inhibitor combinations."}, "[1]": {"test_system": "BRCA1/2 mutant population", "settings": "maintenance therapy; cited from earlier work"}, "MCF7 cells": {"test_system": "MCF7 cells", "test": "Cell proliferation assay, MTT method", "assay_type": "cell-based, human", "settings": "72 h", "description": "DNA replication precedes cell division. Thus, cancer cells cannot divide and proliferate without successful chromosomal duplication. A DNA polymerase inhibitor should inhibit cancer cell proliferation. We characterized the antiproliferative properties of zelpolib on a number of cell lines originated from pancreatic cancer (BxPC-3) and breast cancer (MCF7 for ER+ breast cancer). In addition, we developed a cisplatin resistant subline of a pancreatic cancer cell line, R-BxPC3 for our studies as well. We used the MTT method^25 for analyzing cell proliferation. This assay is based on the reduction of 3-(4,5-dimethylthiazol-2-yl)-2,5-diphenyltetrazolium bromide by live cells to an insoluble formazon, which were subsequently dissolved in DMSO and quantified by UV absorbance. Therefore, the cell number is proportional to the optical density in the established linear region. […] The plateau phenomena indicate inhibition of proliferation without cell killing, similar to these observed from hydroxyurea^26, aphidicolin^27, and to a certain extent, methotrexate treatments^28. Direct inhibition of DNA polymerase activity provides a unique mechanism that is not employed by any of the current cancer therapeutics. We selected a number of most widely prescribed chemotherapeutics with distinct mechanisms to compare their antiproliferative potential in the 2 cancer cell lines. We included alkylating agent cisplatin, antimetabolites methotrexate and 5-flourouracil (5FU)^29-31. […] Whereas the comparison with cisplatin is biphasic.\nas §1"}}}
{"smiles": "CNCc1ccc(-c2[nH]c3cc(F)cc4c3c2CCNC4=O)cc1", "note": "[Rucaparib]", "values": [{"measurement": "sensitivity of HCC1395 cells to the PARP inhibitor alone", "setting": "HCC1395 cells", "result": "insensitive"}]}
{"smiles": "O=C(c1cc(Cc2n[nH]c(=O)c3ccccc23)ccc1F)N1CCN(C(=O)C2CC2)CC1", "note": "[olaparib]", "values": [{"measurement": "hazard ratio in progression-free survival", "setting": "[1]", "result": 0.18}, {"measurement": "reduction in the risk of progression or death", "setting": "[1]", "result": 82, "unit": "%"}]}
{"smiles": "NC(=O)c1cccc2cn(-c3ccc([C@@H]4CCCNC4)cc3)nc12", "note": "[Niraparib]", "values": [{"measurement": "Niraparib concentration with 2.5 μM zelpolib that achieves the effect of 25 μM Niraparib alone", "setting": "HCC1395 cells; HCC1395 proliferation, 48 hrs", "result": 5, "unit": "µM"}, {"measurement": "sensitivity of HCC1395 cells to the PARP inhibitor alone", "setting": "HCC1395 cells", "result": "insensitive"}]}
{"smiles": "N.N.[Cl][Pt][Cl]", "note": "[cisplatin, reference compound]", "values": [{"measurement": "antiproliferative activity, zelpolib versus cisplatin", "setting": "MCF7 cells", "result": "more effective beyond 5 μM"}]}
